One assay concerns 282377-053-R-J1-PDC complex spheroids, viability. Nature of the assay: Anticancer human tumor 282377-053-R-J1-PDC patient-derived colon adenocarcinoma cell line growth inhibition [GQUAD]. To be noted: second compound 10 µM; first compound 0.0316 µM; stronger effect = lower value. An outline of the steps:
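Multi-cell-type spheroids of tumor cells with HUVEC and mesenchymal stem cells, treated with drug combinations. Concentrations descend in half-log steps from near clinical Cmax, or from 10 microM where Cmax is unknown; viability read-out.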
Take `CC1COCCN1c1cc(C2(S(C)(=N)=O)CC2)nc(-c2ccnc3[nH]ccc23)n1` (configuration not stated) + Cc1cnc(CNC(=O)c2c(=O)c3ccc(N4CCCN(C)CC4)nc3n3c2sc2ccccc23)cn1: the viability, T/C (usually the result in the treated group divided by that in the control group, in per cent) is 42.1%.

Regarding `COc1ccc([C@@H](O)c2cc(-c3ncnc4cc(N5CCOCC5)ccc34)c(F)cc2Cl)nn1` + Cc1cnc(CNC(=O)c2c(=O)c3ccc(N4CCCN(C)CC4)nc3n3c2sc2ccccc23)cn1, the viability, T/C was 47%.

The assay is the same for the next values; noted with them: second compound 10 µM; first compound 0.1 µM; stronger effect = lower value.
For `C=CCn1c(=O)c2cnc(Nc3ccc(N4CCN(C)CC4)cc3)nc2n1-c1cccc(C(C)(C)O)n1` + Cc1[nH]c2ccc(F)cc2c1-c1nc2c3cccnc3c3ncccc3c2[nH]1, the viability, T/C was 41.4%.

Consider `COc1ncnc(C2CC2)c1-c1ncc2cnn(Cc3ccc(-c4nc(C(F)(F)F)cn4C(C)C)cc3)c2n1` + Cc1[nH]c2ccc(F)cc2c1-c1nc2c3cccnc3c3ncccc3c2[nH]1, for which the viability, T/C is 30.1%.

`CC1COCCN1c1cc(-c2ccnn2C)c2ccnc(-c3ccn[nH]3)c2n1` (configuration not stated) + Cc1cnc(CNC(=O)c2c(=O)c3ccc(N4CCCN(C)CC4)nc3n3c2sc2ccccc23)cn1: the viability, T/C was 22.5%.

Turning to `CC1COCCN1c1cc(C2(S(C)(=N)=O)CC2)nc(-c2ccnc3[nH]ccc23)n1` (configuration not stated) + Cc1cnc(CNC(=O)c2c(=O)c3ccc(N4CCCN(C)CC4)nc3n3c2sc2ccccc23)cn1, the viability, T/C was 52%.

On to `COc1ccc([C@@H](O)c2cc(-c3ncnc4cc(N5CCOCC5)ccc34)c(F)cc2Cl)nn1` + Cc1cnc(CNC(=O)c2c(=O)c3ccc(N4CCCN(C)CC4)nc3n3c2sc2ccccc23)cn1, for which the viability, T/C was 45.3%.

The assay is the same for the next values; noted with them: second compound 10 µM; first compound 0.316 µM; stronger effect = lower value.
With `C=CCn1c(=O)c2cnc(Nc3ccc(N4CCN(C)CC4)cc3)nc2n1-c1cccc(C(C)(C)O)n1` + Cc1[nH]c2ccc(F)cc2c1-c1nc2c3cccnc3c3ncccc3c2[nH]1, the viability, T/C is 16.9%.

As to `COc1ncnc(C2CC2)c1-c1ncc2cnn(Cc3ccc(-c4nc(C(F)(F)F)cn4C(C)C)cc3)c2n1` + Cc1[nH]c2ccc(F)cc2c1-c1nc2c3cccnc3c3ncccc3c2[nH]1, the viability, T/C is 76.9%.

As to `CC1COCCN1c1cc(-c2ccnn2C)c2ccnc(-c3ccn[nH]3)c2n1` (configuration not stated) + Cc1cnc(CNC(=O)c2c(=O)c3ccc(N4CCCN(C)CC4)nc3n3c2sc2ccccc23)cn1, the viability, T/C is 27.1%.

Take `CC1COCCN1c1cc(C2(S(C)(=N)=O)CC2)nc(-c2ccnc3[nH]ccc23)n1` (configuration not stated) + Cc1cnc(CNC(=O)c2c(=O)c3ccc(N4CCCN(C)CC4)nc3n3c2sc2ccccc23)cn1: the viability, T/C was 54.5%.

Take `COc1ccc([C@@H](O)c2cc(-c3ncnc4cc(N5CCOCC5)ccc34)c(F)cc2Cl)nn1` + Cc1cnc(CNC(=O)c2c(=O)c3ccc(N4CCCN(C)CC4)nc3n3c2sc2ccccc23)cn1: the viability, T/C is 44.5%.

Staying with this assay, now noted: second compound 10 µM; first compound 1 µM; stronger effect = lower value.
As to `C=CCn1c(=O)c2cnc(Nc3ccc(N4CCN(C)CC4)cc3)nc2n1-c1cccc(C(C)(C)O)n1` + Cc1[nH]c2ccc(F)cc2c1-c1nc2c3cccnc3c3ncccc3c2[nH]1, the viability, T/C was 11.4%.

As to `COc1ncnc(C2CC2)c1-c1ncc2cnn(Cc3ccc(-c4nc(C(F)(F)F)cn4C(C)C)cc3)c2n1` + Cc1[nH]c2ccc(F)cc2c1-c1nc2c3cccnc3c3ncccc3c2[nH]1, the viability, T/C was 54.2%.

In the case of `CC1COCCN1c1cc(-c2ccnn2C)c2ccnc(-c3ccn[nH]3)c2n1` (configuration not stated) + Cc1cnc(CNC(=O)c2c(=O)c3ccc(N4CCCN(C)CC4)nc3n3c2sc2ccccc23)cn1, the viability, T/C was 23%.

On to `CC1COCCN1c1cc(C2(S(C)(=N)=O)CC2)nc(-c2ccnc3[nH]ccc23)n1` (configuration not stated) + Cc1cnc(CNC(=O)c2c(=O)c3ccc(N4CCCN(C)CC4)nc3n3c2sc2ccccc23)cn1, for which the viability, T/C is 43.9%.

As for `COc1ccc([C@@H](O)c2cc(-c3ncnc4cc(N5CCOCC5)ccc34)c(F)cc2Cl)nn1` + Cc1cnc(CNC(=O)c2c(=O)c3ccc(N4CCCN(C)CC4)nc3n3c2sc2ccccc23)cn1, the viability, T/C is 39.9%.

The same assay, now with this note: second compound 10 µM; first compound 3.16 µM; stronger effect = lower value.
With `C=CCn1c(=O)c2cnc(Nc3ccc(N4CCN(C)CC4)cc3)nc2n1-c1cccc(C(C)(C)O)n1` + Cc1[nH]c2ccc(F)cc2c1-c1nc2c3cccnc3c3ncccc3c2[nH]1, the viability, T/C was 7.59%.

In the case of `COc1ncnc(C2CC2)c1-c1ncc2cnn(Cc3ccc(-c4nc(C(F)(F)F)cn4C(C)C)cc3)c2n1` + Cc1[nH]c2ccc(F)cc2c1-c1nc2c3cccnc3c3ncccc3c2[nH]1, the viability, T/C was 53.4%.

Take `CC1COCCN1c1cc(-c2ccnn2C)c2ccnc(-c3ccn[nH]3)c2n1` (configuration not stated) + Cc1cnc(CNC(=O)c2c(=O)c3ccc(N4CCCN(C)CC4)nc3n3c2sc2ccccc23)cn1: the viability, T/C was 21.5%.

With `CC1COCCN1c1cc(C2(S(C)(=N)=O)CC2)nc(-c2ccnc3[nH]ccc23)n1` (configuration not stated) + Cc1cnc(CNC(=O)c2c(=O)c3ccc(N4CCCN(C)CC4)nc3n3c2sc2ccccc23)cn1, the viability, T/C was 43.1%.

For `COc1ccc([C@@H](O)c2cc(-c3ncnc4cc(N5CCOCC5)ccc34)c(F)cc2Cl)nn1` + Cc1cnc(CNC(=O)c2c(=O)c3ccc(N4CCCN(C)CC4)nc3n3c2sc2ccccc23)cn1, the viability, T/C was 35.5%.

Still in this assay, the particulars now being: second compound 10 µM; first compound 10 µM; stronger effect = lower value.
In the case of `C=CCn1c(=O)c2cnc(Nc3ccc(N4CCN(C)CC4)cc3)nc2n1-c1cccc(C(C)(C)O)n1` + Cc1[nH]c2ccc(F)cc2c1-c1nc2c3cccnc3c3ncccc3c2[nH]1, the viability, T/C was 1.56%.

Turning to `COc1ncnc(C2CC2)c1-c1ncc2cnn(Cc3ccc(-c4nc(C(F)(F)F)cn4C(C)C)cc3)c2n1` + Cc1[nH]c2ccc(F)cc2c1-c1nc2c3cccnc3c3ncccc3c2[nH]1, the viability, T/C is 5.55%.

With `CC1COCCN1c1cc(-c2ccnn2C)c2ccnc(-c3ccn[nH]3)c2n1` (configuration not stated) + Cc1cnc(CNC(=O)c2c(=O)c3ccc(N4CCCN(C)CC4)nc3n3c2sc2ccccc23)cn1, the viability, T/C was 15.6%.

For the compound `CC1COCCN1c1cc(C2(S(C)(=N)=O)CC2)nc(-c2ccnc3[nH]ccc23)n1` (configuration not stated) + Cc1cnc(CNC(=O)c2c(=O)c3ccc(N4CCCN(C)CC4)nc3n3c2sc2ccccc23)cn1, the viability, T/C was 29.1%.

Take `COc1ccc([C@@H](O)c2cc(-c3ncnc4cc(N5CCOCC5)ccc34)c(F)cc2Cl)nn1` + Cc1cnc(CNC(=O)c2c(=O)c3ccc(N4CCCN(C)CC4)nc3n3c2sc2ccccc23)cn1: the viability, T/C was 30.8%.

Values taken from PubChem BioAssay AID2060501 (Molecular Pharmacology Branch, DTP, NCI, 2025).
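Also: spheroids exposed to compounds for 7 days before readout; percent of vehicle DMSO control viability with 100% = untreated-like growth.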
